Tests used:
[1] = Stability of stock solutions; format: physicochemical; details: DMSO stock solution, stock solution 0.40 mg/mL, n = 6, read-out: Remaining (%, Mean ± SD)
Method: Stock solutions of ISO and trans-stilbene (internal standard, IS) were prepared in DMSO at a final concentration of 1 mg/mL. These solutions were stored at −20 °C and protected from light. The calibration standard and quality control (QC) samples were prepared by serial dilution of the ISO stock solution with pooled blank murine plasma or respective tissue homogenate.
The stability of ISO was evaluated under various storage conditions. Stock solution stability was assessed after storage at room temperature (25 °C) and –20 °C. The stability of ISO in plasma was examined under the following conditions: short-term storage (25 °C for 24 h), long-term storage (–80 °C for 52 days), three freeze–thaw cycles, and post-preparative stability (samples kept in an autosampler at 4 °C for more than 24 h). As it is difficult to evaluate ISO stability directly in tissues, only the short-term stability in tissue homogenates was assessed (6 h on ice). Similarly, post-preparative stability in processed tissue samples was assessed using liver homogenate as a representative, due to the complexity of the hepatic matrix. Stability was considered acceptable if 85–115% of the initial ISO concentration remained.

[2] = cited from earlier work; for Oral absorption: in vivo
[3] = enzymatic-hydrolysis approach; cited from earlier work

For `C(=C\c1ccccc1)/c1ccccc1` [Internal standard, trans-stilbene, reference compound], the remaining at 24 h, 0.4 mg/mL ([1]; stored at room temperature for 24 h) was 94.7 ± 0.3% and the remaining at 480 h, 0.4 mg/mL ([1]; stored at −20 °C for 20 days) was 105.3 ± 0.7%.
For `Oc1cc(O)cc(/C=C/c2ccc(O)cc2O)c1` [oxyresveratrol], the Oral absorption [2] is given as “rapid oral absorption”.
In the case of `Oc1cc(O)cc(/C=C/c2ccc(O)c(O)c2)c1` [piceatannol, reference compound], the Sulfation [3] is listed as “extensive sulfation” and the Oral absorption [2] is listed as “rapid oral absorption”.
In the case of `COc1cc(/C=C/c2ccc(O)cc2)cc(OC)c1` [pterostilbene], the Brain bioavailability ([2]; compared with ISO's limited brain penetration after oral administration) is given as “significantly improved brain bioavailability”.

— article PMC12430278, “A Simple and Reliable Method for the Determination of Isorhapontigenin in Murine Biological Matrices: Application in a Tissue Distribution Study” (Molecules, 2025)
